The values that follow come from article PMC5607274, “An iterative compound screening contest method for identifying target protein inhibitors using the tyrosine-protein kinase Yes” (Scientific Reports, 2017).

The target of the experiment is T1, human recombinant Yes [a.a. 2–543 (end)] (Homo sapiens, UniProt P07947).
T1 construct: human recombinant Yes [a.a; 2–543 (end)]; purchased BPS Bioscience 40488
T1 sequence (P07947 2-543): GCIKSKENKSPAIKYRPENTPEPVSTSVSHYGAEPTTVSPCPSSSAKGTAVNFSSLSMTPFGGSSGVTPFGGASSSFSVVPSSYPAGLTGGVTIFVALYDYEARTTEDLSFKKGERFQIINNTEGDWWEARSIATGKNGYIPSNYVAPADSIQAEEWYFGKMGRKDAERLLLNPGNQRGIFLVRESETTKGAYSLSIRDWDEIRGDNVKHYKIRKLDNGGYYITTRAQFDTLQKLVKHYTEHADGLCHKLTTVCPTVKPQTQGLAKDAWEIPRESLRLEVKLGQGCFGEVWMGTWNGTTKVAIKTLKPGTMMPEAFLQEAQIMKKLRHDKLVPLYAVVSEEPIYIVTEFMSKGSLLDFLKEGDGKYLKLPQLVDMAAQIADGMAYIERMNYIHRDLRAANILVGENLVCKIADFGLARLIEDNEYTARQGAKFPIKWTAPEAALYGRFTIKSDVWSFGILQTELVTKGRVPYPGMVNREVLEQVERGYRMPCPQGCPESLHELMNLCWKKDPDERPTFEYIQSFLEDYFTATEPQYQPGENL
The experiment can be described thus: ADP-Glo kinase assay, inhibition rates of Yes phosphorylation activity (first and second screening). The class given is biochemical. As to conditions: first screening; mean of n = 4 wells; 10 μmol L−1 compound. Put shortly:
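Hits from a first pass were rescreened after re-dissolution from fresh powder. The first pass reported the mean inhibition rate of quadruplicate wells per compound. Activity was that of recombinant human Yes [a.a. 2–543] kinase, read out with the ADP-Glo ADP-detection method.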
For orientation: ADP-Glo turns the ADP formed in a reaction into a luminescent signal.
As to `COc1cc(/C=N/NC(=O)c2cc(-c3cccnc3)nc3ccccc23)ccc1OCc1ccc(Cl)cc1` [Compound Z49638448], the “First screening IR (inhibition rate)” value is -1%.
For `CN(C)c1nc(N)nc(CSCc2nc3ccccc3s2)n1` [Compound Z232651876] the value was -13%; for `CC(C)C(=O)N1CCC(Nc2ncnc3c2cnn3CCC#N)CC1` [Compound Z990868196], -8%; for `CC1CCN(c2ccc(NC(C)C(=O)Nc3cccc([N+](=O)[O-])c3)cc2)CC1` (stereo not shown) [Compound Z132693290], 26%.
Turning to `Cc1ccc(S(=O)(=O)C2CS(=O)(=O)CC2O)cc1` (stereo not shown) [Compound Z56757815], the “First screening IR (inhibition rate)” value is -3%.
For `CCCCN(C)c1ccc(S(C)(=O)=O)cc1S(C)(=O)=O` [Compound Z199538358] the value was 8%.
For `O=C(CCc1cnn(-c2ccccc2)c1)Nc1n[nH]c(-c2ccccn2)n1` [Compound Z653343234] the value was -14%; for `O=C(Cc1ccc(OC(F)F)cc1)N1CCC(c2nc(-c3ccccc3)n[nH]2)CC1` [Compound Z991836758], -3%.
As to `Cc1nnc(SCC(=O)c2cc3cc(Cl)ccc3o2)n1C1CC1` [Compound Z98941608], the “First screening IR (inhibition rate)” value is reported as 10%.
Regarding `O=C(Nc1c[nH]ccc1=O)c1ccc2c(c1)CC(c1ccccc1)OC2=O` (stereo not shown) [Compound Z649184702], the “First screening IR (inhibition rate)” value was -7%.
On to `Cc1nn(CCC#N)c2nc(-c3ccccc3)cc(C(F)(F)F)c12` [Compound Z55426833], for which the “First screening IR (inhibition rate)” value is reported as -11%.
The same measure for `CSc1ncccc1C(=O)OCC(=O)Nc1nc2ccccc2s1` [Compound Z56896575]: -4%; for `CCOc1ccc(C(=O)Nc2ccc3c(c2)C(=O)NC3)cc1OCC` [Compound Z943285536]: 18%; for `CCc1ccc(-c2cc(-c3ccccc3)c3c(n2)/C(=C\c2ccc(N(C)C)cc2)CCC3)cc1` [Compound Z56830412]: -14%.
`COc1cc(Cl)c(C)cc1NC(=O)CN(Cc1ccco1)S(=O)(=O)c1cccc(Cl)c1` [Compound Z25969255]: the “First screening IR (inhibition rate)” value turned out to be 38%.
For `Cc1cc(C(=O)CCC(=O)NCCc2c[nH]c3ccccc23)c(C)s1` [Compound Z32439393] the value was 21%; for `C=CCNc1nc(C(=O)OCCCn2c(=O)[nH]c3ccccc32)cs1` [Compound Z17965676], 5%.
Turning to `O=C(COc1c(Br)cc(Br)c2cccnc12)N1CCCCC1` [Compound Z19811005], the “First screening IR (inhibition rate)” value stood at 5%.
`O=c1c([N+](=O)[O-])c(NCCCn2ccnc2)c2ccccc2n1-c1ccccc1` [Compound Z339024634]: the “First screening IR (inhibition rate)” value is recorded as -22%.
`CCCCOc1ccc(C(=O)NCC(=O)NCC(c2cccs2)N2CCOCC2)cc1` (stereo not shown) [Compound Z84671779]: the “First screening IR (inhibition rate)” value is reported as 6%.
For `N#Cc1ccccc1S(=O)(=O)N1CCN(C(=O)/C=C/c2ccc3c(c2)OCCCO3)CC1` [Compound Z27234574] the value was 36%; for `CC(C)(C)Oc1cccc(CN2CCC(c3c[nH]c4ncccc34)CC2)n1` [Compound Z1564730073], 12%; for `COC(=O)Cn1ncc2c(N3CCCCC3CCC(C)C)ncnc21` (stereo not shown) [Compound Z1419966801], 1%.
Consider `CCc1ccc(S(=O)(=O)N(C)C2CCS(=O)(=O)C2)cc1` (stereo not shown) [Compound Z89320983], for which the “First screening IR (inhibition rate)” value is 10%.
The same measure for `Cc1cccc(-n2c(SCC(=O)c3cc(C)n(CC4CCCO4)c3C)nnc2N2CCOCC2)c1` (stereo not shown) [Compound Z92479374]: 3%; for `Cc1ccc2c(=O)c(C(=O)N(C)CC(=O)Nc3ccc(Cl)c(Cl)c3)c[nH]c2n1` [Compound Z454409356]: 45%; for `O=S(=O)(Cl)c1ccc(S(=O)(=O)N2CCCC2)cc1` [Compound Z56979291]: 9%.
For `CCOC(=O)c1cc(-c2ccccc2)nc2[nH]c(=O)c3ccccc3c12` [Compound Z295883036], the “First screening IR (inhibition rate)” value worked out at 9%.
With `CCCN(S(=O)(=O)c1ccc(Cl)cc1)S(=O)(=O)c1ccc(C)cc1C` [Compound Z45422032], the “First screening IR (inhibition rate)” value came out at 5%.
For the compound `CN(C1CCS(=O)(=O)C1)S(=O)(=O)c1cc(Cl)cc(Cl)c1` (stereo not shown) [Compound Z89320874], the “First screening IR (inhibition rate)” value came to 17%.
Regarding `Cc1ccccc1Nc1nc(N)nc(CSCc2ccc(Cl)cc2)n1` [Compound Z18432818], the “First screening IR (inhibition rate)” value is on record as 6%.
In the case of `COc1ccc(/C=C2/CN(C)Cc3c2nc2ccccc2c3C(=O)O)cc1` [Compound Z46114702], the “First screening IR (inhibition rate)” value is reported as -7%.
The same measure for `Cn1cc(Nc2nccc(C(F)(F)F)n2)cn1` [Compound Z646439314]: 5%; for `CC(NC(=O)C(C)N1CCCN(Cc2ccc(C#N)cc2)CC1)c1ccccc1` (stereo not shown) [Compound Z229381330]: -12%.
As for `CCOC(=O)Cn1ccc2cc(NC(=O)c3sc(-c4ccccc4)nc3C)ccc21` [Compound Z968524204], the “First screening IR (inhibition rate)” value is 2%.
Regarding `Cc1ccccc1-n1c(=O)c2ccccc2n2c(=S)n(CN3CCN(CCC(C)C)CC3)nc12` [Compound Z431773138], the “First screening IR (inhibition rate)” value is listed as 44%.
Consider `Cc1cc(C(=O)Nc2nc3ccccc3n2C2CCCC2)nn1C` [Compound Z1251687771], for which the “First screening IR (inhibition rate)” value is recorded as 9%.
As to `Cc1ccc(C(=O)Nc2cc(C(=O)N3CCCCC3)ccc2Cl)o1` [Compound Z1037939812], the “First screening IR (inhibition rate)” value is reported as 3%.
Turning to `Cc1ccc(-c2nn3c(=O)c4c(C)c(C)sc4nc3c3ccccc23)cc1` [Compound Z55164044], the “First screening IR (inhibition rate)” value is -6%.
Take `Cc1cccc(NCC2CCN(c3ncnc4c3cnn4C)C2)n1` (stereo not shown) [Compound Z990436502]: the “First screening IR (inhibition rate)” value was 6%.
On to `CN(C)S(=O)(=O)c1cc(S(=O)(=O)c2ccc(Cl)c(S(=O)(=O)N(C)C)c2)ccc1Cl` [Compound Z56862791], for which the “First screening IR (inhibition rate)” value came to 1%.
For `CN(CCO)c1ccc(S(C)(=O)=O)cc1S(C)(=O)=O` [Compound Z199538264], the “First screening IR (inhibition rate)” value worked out at 3%.
As for `O=C(CN1CCN(Cc2nc3scc(-c4ccc(F)cc4)c3c(=O)[nH]2)CC1)N1CCCCCC1` [Compound Z126042696], the “First screening IR (inhibition rate)” value is 22%.
Take `CCc1nc2ccccc2c(C(=O)OCC(=O)Nc2cc(C(N)=O)cc(C(N)=O)c2)c1C` [Compound Z19092990]: the “First screening IR (inhibition rate)” value came out at 2%.
On to `Cc1cc(C)c(C)c(S(=O)(=O)Nc2ccccc2C(=O)N2CCN(c3cccc(C(F)(F)F)c3)CC2)c1C` [Compound Z56576419], for which the “First screening IR (inhibition rate)” value is listed as 21%.
In the case of `CC(C)S(=O)(=O)CCS(=O)(=O)CC1CCCCC1` [Compound Z1347351162], the “First screening IR (inhibition rate)” value is -3%.
The same measure for `CCCn1c(C)cc(-c2csc(NC(=O)CCN3C(=O)COc4ccccc43)n2)c1C` [Compound Z90896104]: -7%.
Regarding `C=CCN(CC(=O)Nc1ccc(S(=O)(=O)N2CCOCC2)cc1)S(=O)(=O)c1ccccc1C(F)(F)F` [Compound Z24398732], the “First screening IR (inhibition rate)” value came to 0%.
With `COC1CN(C(=O)c2cn(-c3ccccc3)nc2-c2cccnc2)C1` [Compound Z1203241726], the “First screening IR (inhibition rate)” value was 7%.
For the compound `Cc1ccc(C)c(-n2nnnc2SC(C)C(=O)Nc2ccc(Cl)cn2)c1` (stereo not shown) [Compound Z21689617], the “First screening IR (inhibition rate)” value is on record as 8%.
With `Cc1sc2nc(CN3CCCC3)nc(N(C)CC(=O)Nc3ccc(N4CCOCC4)cc3)c2c1C` [Compound Z31148700], the “First screening IR (inhibition rate)” value came out at 45%.
The same measure for `O=C(O)c1cc(-c2cccnc2)nc2c1cnn2Cc1cccnc1` [Compound Z98638708]: 13%; for `Cc1ccc(C(=O)C(Sc2nnc(C3COc4ccccc4O3)n2C)c2ccc(C)cc2)cc1` (stereo not shown) [Compound Z24312958]: 0%.
Take `O=C(COc1ccc(-c2cc(-c3ccccc3)c3cc(Cl)ccc3n2)cc1)NCCO` [Compound Z57805545]: the “First screening IR (inhibition rate)” value came out at 39%.
For the compound `O=S1(=O)CCC(S(=O)(=O)Cl)C1` (stereo not shown) [Compound Z57163399], the “First screening IR (inhibition rate)” value is given as -7%.
Consider `CS(=O)(=O)c1ccc(Cl)c(S(N)(=O)=O)c1` [Compound Z353972988], for which the “First screening IR (inhibition rate)” value was 2%.
With `CCCCN(C1CCS(=O)(=O)C1)S(=O)(=O)c1ccc(Cl)c(Cl)c1` (stereo not shown) [Compound Z147580066], the “First screening IR (inhibition rate)” value was determined as 30%.
For the compound `CC(C)(C)c1ccc(OCc2nnc(SCC(=O)N3CCC(c4ccccc4)=N3)n2N)cc1` [Compound Z24578166], the “First screening IR (inhibition rate)” value amounted to 40%.
With `Cn1c(=O)c2cc(C(=O)Nc3ccc(F)c(Cl)c3)sc2n(C)c1=O` [Compound Z818806818], the “First screening IR (inhibition rate)” value is reported as -3%.
On to `CCCCn1nc(C)c(C(=O)N2CCC(C)(CN3CCN(C)CC3)CC2)c1Cl` [Compound Z1667221615], for which the “First screening IR (inhibition rate)” value amounted to 29%.
For the compound `CCOc1ccc(N2C(C)=CC(=C(C#N)c3nc4ccccc4s3)C=C2C)cc1` [Compound Z223690154], the “First screening IR (inhibition rate)” value was found to be 20%.
Take `Cc1sc2nc(CN3CCC(C)CC3)n(CC(=O)Nc3ccc(N4CCCC4)cc3)c(=O)c2c1C` [Compound Z112958446]: the “First screening IR (inhibition rate)” value is recorded as -4%.
On to `CN(C)C(=O)c1ccc(Cl)c(NC(=O)N2CCc3ccccc3C2)c1` [Compound Z413336660], for which the “First screening IR (inhibition rate)” value stood at 5%.
As to `Cc1cccc(C)c1OCC(O)CNc1ncnc2sc(C)c(C)c12` (stereo not shown) [Compound Z838103434], the “First screening IR (inhibition rate)” value is recorded as 13%.
